Values of other authors as cited in US20080280955A1, “Methods and compositions for screening and treatment of disorders of blood glucose regulation” (Perlegen Sciences, Inc., priority 2005, published 2008).

Legend:
PPAR-delta = target: T1, PPAR-delta (Homo sapiens, UniProt Q03181)
T1 sequence (Q03181 1-441): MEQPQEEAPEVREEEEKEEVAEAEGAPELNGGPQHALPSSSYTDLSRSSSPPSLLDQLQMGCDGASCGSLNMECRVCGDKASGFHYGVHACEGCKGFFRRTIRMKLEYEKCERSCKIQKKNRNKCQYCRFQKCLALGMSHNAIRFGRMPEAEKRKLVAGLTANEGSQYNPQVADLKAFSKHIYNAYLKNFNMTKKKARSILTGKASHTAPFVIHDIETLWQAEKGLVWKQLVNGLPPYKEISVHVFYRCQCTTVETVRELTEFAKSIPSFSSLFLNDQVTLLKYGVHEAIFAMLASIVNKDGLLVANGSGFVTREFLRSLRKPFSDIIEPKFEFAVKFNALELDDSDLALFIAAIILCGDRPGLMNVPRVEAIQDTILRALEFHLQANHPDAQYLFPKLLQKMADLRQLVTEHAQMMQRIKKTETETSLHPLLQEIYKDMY

PPAR-gamma = target: T2, PPAR-gamma (Homo sapiens, UniProt P37231); conditions: context-specific, depends on cell type
T2 sequence (P37231 1-505): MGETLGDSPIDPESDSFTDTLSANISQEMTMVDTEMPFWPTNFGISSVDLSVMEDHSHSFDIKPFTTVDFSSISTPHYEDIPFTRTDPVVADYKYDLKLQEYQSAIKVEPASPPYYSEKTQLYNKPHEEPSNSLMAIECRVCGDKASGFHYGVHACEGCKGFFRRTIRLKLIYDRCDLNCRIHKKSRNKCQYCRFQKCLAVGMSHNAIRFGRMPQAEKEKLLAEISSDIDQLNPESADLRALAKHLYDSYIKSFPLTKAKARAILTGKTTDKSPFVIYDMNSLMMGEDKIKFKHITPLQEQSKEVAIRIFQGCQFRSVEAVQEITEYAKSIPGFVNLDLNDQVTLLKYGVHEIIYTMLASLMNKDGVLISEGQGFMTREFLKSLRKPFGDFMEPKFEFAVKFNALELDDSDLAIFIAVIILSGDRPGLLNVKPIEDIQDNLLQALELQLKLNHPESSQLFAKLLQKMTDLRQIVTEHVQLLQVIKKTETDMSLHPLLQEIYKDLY

PPAR-alpha = target: T3, PPAR-alpha (Homo sapiens, UniProt Q07869)
T3 sequence (Q07869 1-468): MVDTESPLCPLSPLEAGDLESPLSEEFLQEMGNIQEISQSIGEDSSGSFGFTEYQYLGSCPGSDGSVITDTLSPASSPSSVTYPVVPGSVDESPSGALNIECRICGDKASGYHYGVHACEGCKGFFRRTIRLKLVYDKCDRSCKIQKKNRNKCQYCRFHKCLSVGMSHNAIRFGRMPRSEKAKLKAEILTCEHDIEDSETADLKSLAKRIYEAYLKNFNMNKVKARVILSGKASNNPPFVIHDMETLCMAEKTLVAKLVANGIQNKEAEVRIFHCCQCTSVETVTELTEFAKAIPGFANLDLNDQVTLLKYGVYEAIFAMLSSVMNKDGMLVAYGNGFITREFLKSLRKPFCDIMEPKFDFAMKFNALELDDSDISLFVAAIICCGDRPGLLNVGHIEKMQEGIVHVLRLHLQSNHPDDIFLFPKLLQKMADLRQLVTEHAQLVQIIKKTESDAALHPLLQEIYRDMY

O=C1NC(=O)C(Cc2ccc3cc(OCc4ccccc4F)ccc3c2)S1 (centres unmarked) [netoglitazone, 5-[{6-(2-fluorobenzyl)oxy-2-naphthyl}methyl]-2,4-thiazolidinedione]
modulation of PPAR-delta (PPAR-delta): appears to modulate | behaviour at PPAR-gamma (PPAR-gamma): full agonist of PPAR-gamma and as a partial agonist or antagonist in others | efficacy in lowering plasma glucose, insulin, and triglyceride levels (compared with pioglitazone and troglitazone): more efficacious than pioglitazone and troglitazone | potency relative to rosiglitazone (compared with rosiglitazone): about three-fold | modulation of PPAR-alpha (PPAR-alpha): appears to modulate
